Results: patent US10800782B2, “Inhibitors of cellular metabolic processes” (Agios Pharmaceuticals, Inc., priority 2016, dated 2020)

Molecular target: T1, MAT2A (Homo sapiens, UniProt P31153)
T1 construct: His6; made in house; host or cells: SF9 insect cells
Test: MAT2A biochemical assay (colorimetric inorganic phosphate detection, PiColorLock)
Conditions: recombinant His6-tagged MAT2A 1 μg/ml; 60 minutes preincubation at 25° C.; L-Met 80 μM, ATP 100 μM; 60 minutes reaction; read at 623 nm; read-out: MAT2A Inhibition Score
Protocol: In the reaction catalyzed by MAT2A enzyme, L-Met and ATP were converted to SAM, inorganic phosphate, and inorganic diphosphate. […] The concentration of malachite green phosphomolybdate produced in the detection reaction is thus directly related to the quantity of product produced by the MAT2A enzyme. Multiple commercial kits exist for this method of phosphate detection and quantification, such as PiColorLock Gold (Innova Biosciences). Typical reaction was performed in 50 μl final volume, containing buffer (Tris, pH 8.0, 50 mM KCl, 15 mM MgCl2, 300 uM EDTA, bovine serum albumin at 0.005% w/v) and 1 μg/ml MAT2A. Compounds were added in 1 μl of DMSO at the desired concentration; a typical dose response curve contained ten points with three-fold dilution between compound concentrations. […] The reaction was allowed to proceed for 60 minutes at room temperature then halted by the addition of 13 μl of PiColor Lock reagent. After a further 5 minutes of incubation at room temperature, […] of PiColor Stabilizer was added and the reactions were further incubated at 25° C. for 25 minutes. […] Recombinant MAT2A protein was expressed in SF9 insect cells and purified by metal chelate affinity chromatography, using methods well known in the art. After expression of His6-tagged MAT2A cells were disrupted by 4 passes through an M-Yl 10 Micro fluidizer (Microfluidics) set to 500 psi, and then centrifuged at 22,000 rcf for 20 min at 4° C. The supernatant was harvested and loaded at 15 cm/h on a Histrap FF 5*1 ml column (GE) which was equilibrated with 50 mM Tris, 500 mM NaCl, pH7.4. Host cell contaminants were removed by washing the column with equilibration buffer followed by equilibration buffer containing 20 mM imidazole and 60 mM imidazole to baseline. MAT2A protein was eluted by the addition of buffer containing 250 mM imidazole, dialized into 50 mM NaCl, 50 mM Tris, pH 7.4, flash frozen in liquid nitrogen, and stored at −80° C. until use.

T1 sequence (P31153 whole entry): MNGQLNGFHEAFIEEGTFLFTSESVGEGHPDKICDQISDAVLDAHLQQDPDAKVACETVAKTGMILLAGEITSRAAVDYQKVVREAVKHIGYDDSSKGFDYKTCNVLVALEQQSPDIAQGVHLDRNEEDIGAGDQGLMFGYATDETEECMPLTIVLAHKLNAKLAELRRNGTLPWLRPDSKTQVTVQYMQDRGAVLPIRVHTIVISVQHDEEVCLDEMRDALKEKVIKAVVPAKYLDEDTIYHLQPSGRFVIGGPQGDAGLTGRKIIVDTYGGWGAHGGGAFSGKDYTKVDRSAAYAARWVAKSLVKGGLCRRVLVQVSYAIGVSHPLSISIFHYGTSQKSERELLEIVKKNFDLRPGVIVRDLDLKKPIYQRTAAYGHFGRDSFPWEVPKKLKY

Row | IC50 [nM] | Structure (SMILES)
1 | < 100 | NCc1[nH]c2c(-c3ccccc3)c(-c3ccccc3)nn2c(=O)c1-c1ccc(O)cc1 [Compound 236, 5-(aminomethyl)-6-(4-hydroxyphenyl)-2,3-diphenylpyrazolo[1,5-a]pyrimidin-7(4H)-one]
2 | < 100 | Cc1[nH]c2c(-c3ccccc3)c(-c3ccccc3)nn2c(=O)c1-c1ccc(O)c(Cl)c1 [Compound 239, 6-(3-chloro-4-hydroxyphenyl)-5-methyl-2,3-diphenylpyrazolo[1,5-a]pyrimidin-7(4H)-one]
3 | 1000 to 10000 | COc1ccc(-c2nn3c(=O)c(-c4ccc5ncccc5c4)c(C)[nH]c3c2-c2ccccc2)cn1 [Compound 349, 2-(6-methoxypyridin-3-yl)-5-methyl-3-phenyl-6-(quinolin-6-yl)pyrazolo[1,5-a]pyrimidin-7(4H)-one]
4 | 1000 to 10000 | Cc1[nH]c2c(-c3ccccc3)c(-c3ccncc3)nn2c(=O)c1-c1ccc2ncccc2c1 [Compound 348, 5-methyl-3-phenyl-2-(pyridin-4-yl)-6-(quinolin-6-yl)pyrazolo[1,5-a]pyrimidin-7(4H)-one]
5 | 100 to 1000 | Cc1[nH]c2c(N3CCCCC3)c(-c3ccccc3)nn2c(=O)c1-c1ccc(C(N)=O)cc1 [Compound 305, 4-(5-methyl-7-oxo-2-phenyl-3-(piperidin-1-yl)-4,7-dihydropyrazolo[1,5-a]pyrimidin-6-yl)benzamide]
6 | < 100 | Cc1[nH]c2c(C3=CCCCC3)c(-c3ccccc3)nn2c(=O)c1-c1ccc(OCOP(=O)(O)O)cc1 [Compound 296, (4-(3-cyclohexenyl-5-methyl-7-oxo-2-phenyl-4,7-dihydropyrazolo[1,5-a]pyrimidin-6-yl)phenoxy)methyl dihydrogen phosphate]
7 | 100 to 1000 | COc1ccc(-c2c(C(N)=O)[nH]c3c(-c4ccccc4)c(-c4ccccc4)nn3c2=O)cc1 [Compound 315, 6-(4-methoxyphenyl)-7-oxo-2,3-diphenyl-4,7-dihydropyrazolo[1,5-a]pyrimidine-5-carboxamide]
8 | < 100 | Cc1[nH]c2c(C3=CC(O)CCC3)c(-c3ccccc3)nn2c(=O)c1-c1ccc2ncccc2c1 (stereo not drawn) [Compound 282]
9 | < 100 | O=c1c(-c2ccc(O)cc2)c(O)[nH]c2c(-c3ccccc3)c(-c3ccccc3)nn12 [Compound 273, 5-hydroxy-6-(4-hydroxyphenyl)-2,3-diphenylpyrazolo[1,5-a]pyrimidin-7(4H)-one]
10 | < 100 | Cc1[nH]c2c(N3CCCCC3)c(-c3ccccc3)nn2c(=O)c1-c1cn[nH]c1 [Compound 266, 5-methyl-2-phenyl-3-(piperidin-1-yl)-6-(1H-pyrazol-4-yl)pyrazolo[1,5-a]pyrimidin-7(4H)-one]
11 | < 100 | NCc1[nH]c2c(C3=CCCCC3)c(-c3ccccc3)nn2c(=O)c1-c1ccc(O)cc1 [Compound 241, 5-(aminomethyl)-3-(cyclohex-1-en-1-yl)-6-(4-hydroxyphenyl)-2-phenylpyrazolo[1,5-a]pyrimidin-7(4H)-one]
12 | 1000 to 10000 | Cc1[nH]c2c(N3CCCCC3)c(-c3ccccc3)nn2c(=O)c1-c1ccc(S(C)(=O)=O)cc1 [Compound 306, 5-methyl-6-(4-(methylsulfonyl)phenyl)-2-phenyl-3-(piperidin-1-yl)pyrazolo[1,5-a]pyrimidin-7(4H)-one]
13 | < 100 | COCn1c(-c2ccccc2)c(C2=CCCCC2)c2nc(C)c(-c3ccc(OC)cc3)c(=O)n21 [Compound 291, 3-cyclohexenyl-1-(methoxymethyl)-6-(4-methoxyphenyl)-5-methyl-2-phenylpyrazolo[1,5-a]pyrimidin-7(1H)-one]
14 | < 100 | CC(=O)NCc1[nH]c2c(-c3ccccc3)c(-c3ccccc3)nn2c(=O)c1-c1ccc2ncccc2c1 [Compound 228, N-((7-oxo-2,3-diphenyl-6-(quinolin-6-yl)-4,7-dihydropyrazolo[1,5-a]pyrimidin-5-yl)methyl)acetamide]
15 | 1000 to 10000 | Cc1[nH]c2c(-c3ccccc3)c(-c3ccnc(Cl)c3)nn2c(=O)c1-c1ccc2ncccc2c1 [Compound 350, 2-(2-chloropyridin-4-yl)-5-methyl-3-phenyl-6-(quinolin-6-yl)pyrazolo[1,5-a]pyrimidin-7(4H)-one]
16 | 1000 to 10000 | O=C1NCCN1Cc1[nH]c2c(-c3ccccc3)c(-c3ccccc3)nn2c(=O)c1-c1ccc2ncccc2c1 [Compound 324, 5-((2-oxoimidazolidin-1-yl)methyl)-2,3-diphenyl-6-(quinolin-6-yl)pyrazolo[1,5-a]pyrimidin-7(4H)-one]
17 | 100 to 1000 | COc1ccc(-c2c(C#N)[nH]c3c(-c4ccccc4)c(-c4ccccc4)nn3c2=O)cc1 [Compound 314, 6-(4-methoxyphenyl)-7-oxo-2,3-diphenyl-4,7-dihydropyrazolo[1,5-a]pyrimidine-5-carbonitrile]

Continued, compound first:

Row | Structure (SMILES) | IC50 [nM]
18 | COc1ccc(-c2c(Nc3cccc(F)n3)[nH]c3c(-c4ccccc4)c(-c4ccccc4)nn3c2=O)cc1 [Compound 110, 5-((6-fluoropyridin-2-yl)amino)-6-(4-methoxyphenyl)-2,3-diphenylpyrazolo[1,5-a]pyrimidin-7(4H)-one] | < 100
19 | COc1ccc(-c2c(Nc3ccccn3)[nH]c3c(-c4ccccc4)c(-c4ccccn4)nn3c2=O)cc1 [Compound 180, 6-(4-methoxyphenyl)-3-phenyl-2-(pyridin-2-yl)-5-(pyridin-2-ylamino)pyrazolo[1,5-a]pyrimidin-7(4H)-one] | < 100
20 | COc1ccc(-c2c(Nc3ccccn3)[nH]c3c(N4CCCCC4)c(-c4ccccc4)nn3c2=O)cc1 [Compound 181, 6-(4-methoxyphenyl)-2-phenyl-3-(piperidin-1-yl)-5-(pyridin-2-ylamino)pyrazolo[1,5-a]pyrimidin-7(4H)-one] | < 100
21 | COc1ccc(-c2c(Nc3ccc(Cl)nn3)[nH]c3c(-c4ccccc4)c(-c4ccccc4)nn3c2=O)cc1 [Compound 125, 5-((6-chloropyridazin-3-yl)amino)-6-(4-methoxyphenyl)-2,3-diphenylpyrazolo[1,5-a]pyrimidin-7(4H)-one] | < 100
22 | O=c1c(-c2ccc3ncccc3c2)c(Nc2ccccn2)[nH]c2c(-c3ccccc3)c(-c3ccccc3)nn12 [Compound 168, 2,3-diphenyl-5-(pyridin-2-ylamino)-6-(quinolin-6-yl)pyrazolo[1,5-a]pyrimidin-7(4H)-one] | < 100
23 | COc1ccc(-c2c(Nc3ncncn3)[nH]c3c(C4=CCCCC4)c(-c4ccccc4)nn3c2=O)cc1 [Compound 163, 5-((1,3,5-triazin-2-yl)amino)-3-(cyclohex-1-en-1-yl)-6-(4-methoxyphenyl)-2-phenylpyrazolo[1,5-a]pyrimidin-7(4H)-one] | < 100
24 | CCOC(=O)c1ncsc1Nc1[nH]c2c(-c3ccccc3)c(-c3ccccc3)nn2c(=O)c1-c1ccc(OC)cc1 [Compound 150, ethyl 5-((6-(4-methoxyphenyl)-7-oxo-2,3-diphenyl-4,7-dihydropyrazolo[1,5-a]pyrimidin-5-yl)amino)thiazole-4-carboxylate] | < 100
25 | COc1ccc(-c2c(Nc3cnc(N)cn3)[nH]c3c(C4=CCCCC4)c(-c4ccccc4)nn3c2=O)cc1 [Compound 160, 5-((5-aminopyrazin-2-yl)amino)-3-(cyclohex-1-en-1-yl)-6-(4-methoxyphenyl)-2-phenylpyrazolo[1,5-a]pyrimidin-7(4H)-one] | < 100
26 | O=c1c(-c2ccc3ncccc3c2)c(Nc2ccncn2)[nH]c2c(-c3ccccc3)c(-c3ccccc3)nn12 [Compound 169, 2,3-diphenyl-5-(pyrimidin-4-ylamino)-6-(quinolin-6-yl)pyrazolo[1,5-a]pyrimidin-7(4H)-one] | < 100
27 | COc1ccc(-c2c(Nc3cnc(N)cn3)[nH]c3c(-c4ccccc4)c(-c4ccccc4)nn3c2=O)cc1 [Compound 130, 5-((5-aminopyrazin-2-yl)amino)-6-(4-methoxyphenyl)-2,3-diphenylpyrazolo[1,5-a]pyrimidin-7(4H)-one] | < 100
28 | COc1ccc(-c2c(Nc3cnccn3)[nH]c3c(-c4ccccc4)c(-c4ccccc4)nn3c2=O)cc1 [Compound 126, 6-(4-methoxyphenyl)-2,3-diphenyl-5-(pyrazin-2-ylamino)pyrazolo[1,5-a]pyrimidin-7(4H)-one] | < 100
29 | O=c1c(-c2ccc3nccnc3c2)c(Nc2ccon2)[nH]c2c(C3=CCCCC3)c(-c3ccccc3)nn12 [Compound 177, 3-(cyclohex-1-en-1-yl)-5-(isoxazol-3-ylamino)-2-phenyl-6-(quinoxalin-6-yl)pyrazolo[1,5-a]pyrimidin-7(4H)-one] | < 100
30 | Cc1[nH]c2c(C3=CCCCO3)c(-c3ccccc3)nn2c(=O)c1-c1ccc2ncccc2c1 [Compound 217, 3-(3,4-dihydro-2H-pyran-6-yl)-5-methyl-2-phenyl-6-(quinolin-6-yl)pyrazolo[1,5-a]pyrimidin-7(4H)-one] | < 100
